Data reported in patent publication US9296741B2, “Bromodomain inhibitors” (priority 2012, dated 2016).

Columns and labels:
[1] = molecular target: human BRD4 second bromodomain (BDII_E352-M457) (Homo sapiens (Human), UniProt O60885); assay: TR-FRET bromodomain binding assay, BRD4 second bromodomain
[2] = molecular target: human BRD4 first bromodomain (BDI_K57-E168) (Homo sapiens (Human), UniProt O60885); assay: TR-FRET bromodomain binding assay, BRD4 first bromodomain
[3] = Mouse liver microsome stability assay; format: in vitro ADME; details: male, CD1, mouse, microsomes, pH 7.4
[4] = system: breast cancer cell line MX-1; assay: MX-1 cell line proliferation assay; format: cell-based, human; details: Homo sapiens, MX1, 72 h; MX-1 cells, 3-day proliferation, Cell Titer Glo; read-out: Cellular proliferation: EC50
[5] = Human liver microsome stability assay; format: in vitro ADME; details: both sexes, human, microsomes, pH 7.4
[6] = Rat liver microsome stability assay; format: in vitro ADME; details: rat liver microsomes (male Sprague-Dawley), 0.5 μM test compound, pH 7.4, 37° C.; for Stability in rat liver microsomes (t1/2 in minutes): […] microsomal protein; for half-life at 0.5 μM: 0.25 mg/mL microsomal protein, read-out: Stability in rat liver microsomes (t1/2 in minutes)

Compound	Ki [1]	Ki [2]	half-life at 0.5 μM [3]	EC50 [4]	half-life at 0.5 μM [5]	Stability in rat liver microsomes (t1/2 in minutes) [6]	half-life at 0.5 μM [6]
Cn1cc(-c2cc(CN3CCCS3(=O)=O)ccc2Oc2ccccc2)c2cc[nH]c2c1=O [Example 41, 4-{5-[(1,1-dioxido-1,2-thiazolidin-2-yl)methyl]-2-phenoxyphenyl}-6-methyl-1,6-dihydro-7H-pyrrolo[2,3-c]pyridin-7-one]	0.51 nM	2.8 nM	10 min	29.8 nM	13.6 min	1 min	–
Cn1cc(-c2cc(CNC(=O)CCC(=O)O)ccc2Oc2ccccc2)c2cc[nH]c2c1=O [Example 42, 4-{[3-(6-methyl-7-oxo-6,7-dihydro-1H-pyrrolo[2,3-c]pyridin-4-yl)-4-phenoxybenzyl]amino}-4-oxobutanoic acid]	93.4 nM	54.6 nM	> 120 min	> 3000 nM	> 120 min	–	> 120 min
Cn1cc(-c2cc(N3CCCS3(=O)=O)ccc2Oc2ccc(F)cc2F)c2cc[nH]c2c1=O [Example 43, 4-[2-(2,4-difluorophenoxy)-5-(1,1-dioxido-1,2-thiazolidin-2-yl)phenyl]-6-methyl-1,6-dihydro-7H-pyrrolo[2,3-c]pyridin-7-one]	1.2 nM	1.7 nM	5 min	16.9 nM	34.9 min	–	2 min
Cn1cc(-c2cc(CCO)ccc2OCc2ccccc2)c2cc[nH]c2c1=O [Example 44, 4-[2-(benzyloxy)-5-(2-hydroxyethyl)phenyl]-6-methyl-1,6-dihydro-7H-pyrrolo[2,3-c]pyridin-7-one]	236 nM	286 nM	27 min	828 nM	33.7 min	–	6 min
CN(C)C(=O)Cc1ccc(OCc2ccccc2)c(-c2cn(C)c(=O)c3[nH]ccc23)c1 [Example 47, 2-[4-(benzyloxy)-3-(6-methyl-7-oxo-6,7-dihydro-1H-pyrrolo[2,3-c]pyridin-4-yl)phenyl]-N,N-dimethylacetamide]	205 nM	235 nM	5 min	1100 nM	8 min	–	3 min
Cn1cc(-c2cc(C(N)=O)ccc2Oc2ccc(F)cc2F)c2cc[nH]c2c1=O [Example 50, 4-(2,4-difluorophenoxy)-3-(6-methyl-7-oxo-6,7-dihydro-1H-pyrrolo[2,3-c]pyridin-4-yl)benzamide]	8.1 nM	21.5 nM	46 min	206 nM	35 min	–	88 min
Cn1cc(-c2cc(C(=O)NC3CCOC3)ccc2Oc2ccc(F)cc2F)c2cc[nH]c2c1=O (stereo not drawn) [Example 51, 4-(2,4-difluorophenoxy)-3-(6-methyl-7-oxo-6,7-dihydro-1H-pyrrolo[2,3-c]pyridin-4-yl)-N-(tetrahydrofuran-3-yl)benzamide]	16.1 nM	9.7 nM	> 120 min	101 nM	6 min	–	63 min
Cn1cc(-c2cc(C(=O)N3CCC(NC(=O)OC(C)(C)C)C3)ccc2Oc2ccc(F)cc2F)c2cc[nH]c2c1=O (stereo not drawn) [Example 54, tert-butyl {1-[4-(2,4-difluorophenoxy)-3-(6-methyl-7-oxo-6,7-dihydro-1H-pyrrolo[2,3-c]pyridin-4-yl)benzoyl]pyrrolidin-3-yl}carbamate]	37.5 nM	95.1 nM	2 min	266 nM	3 min	–	30 min
Cn1cc(-c2cc(NS(C)(=O)=O)ccc2OC2CCCCC2)c2cc[nH]c2c1=O [Example 57, N-[4-(cyclohexyloxy)-3-(6-methyl-7-oxo-6,7-dihydro-1H-pyrrolo[2,3-c]pyridin-4-yl)phenyl]methanesulfonamide]	2 nM	0.88 nM	5 min	13.8 nM	13 min	–	6 min
Cn1cc(-c2cc(NS(C)(=O)=O)ccc2OC2CCCC2)c2cc[nH]c2c1=O [Example 58, N-[4-(cyclopentyloxy)-3-(6-methyl-7-oxo-6,7-dihydro-1H-pyrrolo[2,3-c]pyridin-4-yl)phenyl]methanesulfonamide]	8.1 nM	2.1 nM	4 min	45.1 nM	> 120 min	1 min	–
Cn1cc(-c2cc(NS(C)(=O)=O)ccc2OC2CCCOC2)c2cc[nH]c2c1=O (stereo not drawn) [Example 60, N-[3-(6-methyl-7-oxo-6,7-dihydro-1H-pyrrolo[2,3-c]pyridin-4-yl)-4-(tetrahydro-2H-pyran-3-yloxy)phenyl]methanesulfonamide]	6.6 nM	0.75 nM	34 min	14.2 nM	68 min	–	64 min
Cn1cc(-c2cc(NS(C)(=O)=O)ccc2OCc2ccccc2)c2cc[nH]c2c1=O [Example 63, N-[4-(benzyloxy)-3-(6-methyl-7-oxo-6,7-dihydro-1H-pyrrolo[2,3-c]pyridin-4-yl)phenyl]methanesulfonamide]	42.7 nM	18 nM	18 min	105 nM	39 min	–	13 min
COC(=O)c1cc2c(-c3ccccc3Oc3ccccc3)cn(C)c(=O)c2[nH]1 [Example 67, methyl 6-methyl-7-oxo-4-(2-phenoxyphenyl)-6,7-dihydro-1H-pyrrolo[2,3-c]pyridine-2-carboxylate]	93.8 nM	56.1 nM	6 min	341 nM	6 min	–	5 min
CCOC(=O)c1cc2c(-c3cc(N)ccc3Oc3ccccc3)cn(C)c(=O)c2[nH]1 [Example 69, ethyl 4-(5-amino-2-phenoxyphenyl)-6-methyl-7-oxo-6,7-dihydro-1H-pyrrolo[2,3-c]pyridine-2-carboxylate]	12.3 nM	39 nM	3 min	140 nM	6 min	–	2 min
Cn1cc(-c2cc(NS(C)(=O)=O)ccc2Oc2ccccc2)c2cc(C(=O)O)[nH]c2c1=O [Example 70, 6-methyl-4-{5-[(methylsulfonyl)amino]-2-phenoxyphenyl}-7-oxo-6,7-dihydro-1H-pyrrolo[2,3-c]pyridine-2-carboxylic acid]	46.8 nM	11.8 nM	68 min	> 3000 nM	41 min	–	9 min
CCOC(=O)c1cc2c(-c3cc(NS(C)(=O)=O)ccc3Oc3ccccc3)cn(C)c(=O)c2[nH]1 [Example 71, ethyl 6-methyl-4-{5-[(methylsulfonyl)amino]-2-phenoxyphenyl}-7-oxo-6,7-dihydro-1H-pyrrolo[2,3-c]pyridine-2-carboxylate]	1.2 nM	0.81 nM	6 min	17.5 nM	2 min	1 min	–
CCNC(=O)c1cc2c(-c3cc(NS(C)(=O)=O)ccc3Oc3ccccc3)cn(C)c(=O)c2[nH]1 [Example 72, N-ethyl-6-methyl-4-{5-[(methylsulfonyl)amino]-2-phenoxyphenyl}-7-oxo-6,7-dihydro-1H-pyrrolo[2,3-c]pyridine-2-carboxamide]	1.1 nM	1.5 nM	70 min	45.7 nM	34 min	1 min	–
Cn1cc(-c2cc(NS(C)(=O)=O)ccc2Oc2ccccc2)c2cc(C(N)=O)[nH]c2c1=O [Example 73, 6-methyl-4-{5-[(methylsulfonyl)amino]-2-phenoxyphenyl}-7-oxo-6,7-dihydro-1H-pyrrolo[2,3-c]pyridine-2-carboxamide]	0.5 nM	0.98 nM	31 min	20.7 nM	36 min	–	2 min
Cn1nc(-c2ccccc2Oc2ccccc2)c2cc[nH]c2c1=O [Example 82, 6-methyl-4-(2-phenoxyphenyl)-1,6-dihydro-7H-pyrrolo[2,3-d]pyridazin-7-one]	183 nM	519 nM	2 min	767 nM	19 min	–	2 min
Cn1cc(-c2cc(NS(=O)(=O)CCF)ccc2OC2CCOC2)c2cc[nH]c2c1=O (stereo not drawn) [Example 91, 2-fluoro-N-[3-(6-methyl-7-oxo-6,7-dihydro-1H-pyrrolo[2,3-c]pyridin-4-yl)-4-(tetrahydrofuran-3-yloxy)phenyl]ethanesulfonamide]	87.4 nM	12.2 nM	7 min	240 nM	17 min	–	7 min
CCCS(=O)(=O)Nc1ccc(Oc2ccc(C#N)cc2)c(-c2cn(C)c(=O)c3[nH]ccc23)c1 [Example 93, N-[4-(4-cyanophenoxy)-3-(6-methyl-7-oxo-6,7-dihydro-1H-pyrrolo[2,3-c]pyridin-4-yl)phenyl]propane-1-sulfonamide]	32.2 nM	7.6 nM	25 min	120 nM	54 min	–	102 min
